Measurements from patent US7276337B2, “Compositions and methods for visual ribonuclease detection assays” (Integrated DNA Technologies, Inc., priority 2000, dated 2007).

Columns and labels:
[1] = biological target: T1, Ribonuclease A (Bos taurus, UniProt P61823); assay: Visual detection ribonuclease assay, cleavage of Substrate ODN by RNase A; format: biochemical, mammalian; set-up: key to Sensitivity of Substrate ODN to Ribonuclease A, relative signal intensity: +++ = maximum intensity; ++ = moderate intensity; + = faint but above background; − = negative (identical to background); conditions: visual inspection, UV excitation, Substrate 500 nM, 37° C. 60 minutes
T1 sequence (P61823 27-150): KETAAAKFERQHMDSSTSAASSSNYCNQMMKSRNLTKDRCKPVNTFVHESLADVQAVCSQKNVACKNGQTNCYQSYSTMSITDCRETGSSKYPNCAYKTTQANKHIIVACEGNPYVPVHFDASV
Procedure: Nuclease assays were conducted using the methods of the invention. SEQ ID NO:2 and SEQ ID NO:30 oligonucleotides were individually mixed in 1× Assay Buffer at a concentration of 500 nM (50 pmoles ODN in 100 ul volume) in thin-walled, UV transparent microtubes. RNase A (1 ul, diluted to 0;1 ug/ul) was added to the respective Assay Mixes. […] Assays were set up directly in microtubes as follows:
Assay Mixes were incubated at room temperature for 10 minutes. Assays were visually examined for fluorescence emission directly in the assay tubes without further manipulation. Tubes were suspended above an ultraviolet light source, visually inspected, and photographed using a digital camera. […] The “positive” and “control” reactions appeared markedly different and were easily distinguished. […] The “positive” and “control” reactions were not markedly different to visual inspection.
(§1) Nuclease assays were conducted using the method of the invention with both visual and fluorometric detection methods. Substrates were individually mixed in 1× Assay Buffer at a concentration of 50 nM (50 pmoles oligonucleotide in 1 ml volume) for fluorometric detection or at a concentration of 500 nM (50 pmoles of oligonucleotide in 100 ul volume) for visual detection. Test nucleases were added to respective Assay Mixes beginning at 1 ul stock reagent and proceeding with a 1:10 serial dilution until undetectable. Reaction mixes were incubated at 37° C. for 60 minutes. Fluorometric detection was performed as outlined in Example 2. Visual detection was performed as outlined in Example 1.
(§2) Table 6: Sensitivity of different Substrate ODNs to Ribonuclease A. A series of Substrate ODNs were synthesized and tested for sensitivity to RNase A degradation. Stock enzyme was serial diluted to achieve final concentrations of 1 ng/ml, 100 pg/ml, and 10 pg/ml as indicated. Reactions were examined for fluorescence emission by visual inspection using an ultraviolet (UV) light source for excitation. Results were scored as +++, ++, +, or − based on relative signal intensity.
(§3) It is commonly accepted that fluorometry provides for high sensitivity. To be useful, the visual method must also offer high sensitivity. Assays were conducted using the method of the invention with visual detection. Substrate SEQ ID NO:30 was mixed in 1× Assay Buffer at a concentration of 500 nM (50 pmoles ODN in 100 ul volume) in thin-walled, UV transparent tubes. […] Dilutions of stock RNase A, RNase 1, and RNase T1 were made in water. Undiluted and diluted nuclease (1 ul) was added to respective 100 ul Assay Mixes resulting in final dilution factors of 10^−2, 10^−3, 10^−4, 10^−5, 10^−6, and 10^−7. Assays were incubated at room temperature for 10 minutes and visually examined for fluorescence emission with UV excitation. […] The experiment took about 30 minutes to perform, including 15 minutes to set-up serial dilutions, 10 minutes incubation, and 5 minutes to visualize and photograph. Thus the method of the invention allows for a rapid, simple, and convenient visual assay for the presence of ribonuclease activity.

[2] = biological target: T2, Ribonuclease T1 (Aspergillus oryzae, UniProt P00651); assay: Visual detection ribonuclease assay, cleavage of Substrate ODN by RNase T1; format: biochemical; set-up: key to Sensitivity of Substrate ODN to Ribonuclease T1, relative signal intensity: +++ = maximum intensity; ++ = moderate intensity; + = faint but above background; − = negative (identical to background); conditions: visual inspection, UV excitation, Substrate 500 nM, 37° C. 60 minutes
T2 sequence (P00651 27-130): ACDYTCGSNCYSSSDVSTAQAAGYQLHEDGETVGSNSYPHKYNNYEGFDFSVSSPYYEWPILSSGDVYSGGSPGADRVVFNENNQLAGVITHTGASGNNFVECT
Procedure: as §1
as §2, with “Table 7:” for “Table 6:”, “Ribonuclease T1.” for “Ribonuclease A.”, “RNase T1” for “RNase A”, “of 0.001 units/ml, 0.0001 units/ml,” for “of 1 ng/ml, 100 pg/ml,”, “and 0.00001 units/ml” for “and 10 pg/ml”
as §3

| Substance | Sensitivity of Substrate ODN to Ribonuclease A, relative signal intensity ([1]; RNase A 10 pg/ml) | Sensitivity of Substrate ODN to Ribonuclease A, relative signal intensity ([1]; RNase A 100 pg/ml) | Sensitivity of Substrate ODN to Ribonuclease A, relative signal intensity ([1]; RNase A 1 ng/ml) | Sensitivity of Substrate ODN to Ribonuclease T1, relative signal intensity ([2]; RNase T1 10^−3 units/ml) | Sensitivity of Substrate ODN to Ribonuclease T1, relative signal intensity ([2]; RNase T1 10^−4 units/ml) | Sensitivity of Substrate ODN to Ribonuclease T1, relative signal intensity ([2]; RNase T1 10^−5 units/ml) |
| --- | --- | --- | --- | --- | --- | --- |
| 5′ Fluorescein-AgucAA-Dabcyl 3′ (NAGUCAAN; 5' fluorescein and 3' Dabcyl labels, nucleotide chemistry not given here) [SEQ ID NO:10] | − | − | ++ | + | − | − |
| 5′ Fluorescein-AAgAA-Dabcyl 3′ (NAAGAAN; 5' fluorescein and 3' Dabcyl labels, nucleotide chemistry not given here) [SEQ ID NO:4] | − | − | − | + | − | − |
| 5′ Fluorescein-AagucA-QSY-7 3′ (NAAGUCAN; 5' fluorescein and 3' QSY-7 labels, nucleotide chemistry not given here) [SEQ ID NO:27] | + | ++ | +++ | +++ | ++ | + |
| 5′ Fluorescein-AaugcA-QSY-7 3′ (NAAUGCAN; 5' fluorescein and 3' QSY-7 labels, nucleotide chemistry not given here) [SEQ ID NO:29] | + | +++ | +++ | +++ | +++ | ++ |
| 5′ Fluorescein-AgcuAA-Dabcyl 3′ (NAGCUAAN; 5' fluorescein and 3' Dabcyl labels, nucleotide chemistry not given here) [SEQ ID NO:11] | − | − | ++ | + | − | − |
| 5′ Fluorescein-AcgcA-Dabcyl 3′ (NACGCAN; 5' fluorescein and 3' Dabcyl labels, nucleotide chemistry not given here) [SEQ ID NO:13] | − | + | ++ | +++ | ++ | − |
| 5′ Fluorescein-AguAA-Dabcyl 3′ (NAGUAAN; 5' fluorescein and 3' Dabcyl labels, nucleotide chemistry not given here) [SEQ ID NO:7] | − | − | + | + | − | − |
| 5′ Fluorescein-AuagA-Dabcyl 3′ (NAUAGAN; 5' fluorescein and 3' Dabcyl labels, nucleotide chemistry not given here) [SEQ ID NO:16] | − | ++ | +++ | +++ | +++ | − |
| 5′ Fluorescein-AcgaA-Dabcyl 3′ (NACGAAN; 5' fluorescein and 3' Dabcyl labels, nucleotide chemistry not given here) [SEQ ID NO:12] | − | − | ++ | +++ | ++ | − |
| 5′ Fluorescein-AcguA-Dabcyl 3′ (NACGUAN; 5' fluorescein and 3' Dabcyl labels, nucleotide chemistry not given here) [SEQ ID NO:15] | − | + | +++ | +++ | + | − |
| 5′ Fluorescein-AaggucA-QSY-7 3′ (NAAGGUCAN; 5' fluorescein and 3' QSY-7 labels, nucleotide chemistry not given here) [SEQ ID NO:28] | + | ++ | +++ | +++ | +++ | ++ |
| 5′ Fluorescein-AcuaA-Dabcyl 3′ (NACUAAN; 5' fluorescein and 3' Dabcyl labels, nucleotide chemistry not given here) [SEQ ID NO:17] | − | + | +++ | − | − | − |
| 5′ Fluorescein-AAcAA-Dabcyl 3′ (NAACAAN; 5' fluorescein and 3' Dabcyl labels, nucleotide chemistry not given here) [SEQ ID NO:5] | − | + | ++ | − | − | − |
